Reference: patent US6818765B1, “Benzene-sulphonamide derivatives and their uses” (Universite de Liege, priority 1999, dated 2004)
Where two headings read alike, the source gives them in different places.

What was measured:
[1] = molecular target: T1, thromboxane A2 receptors (TPα) of human platelets (Homo sapiens, UniProt P21731); assay: Binding test: displacement of [3H]SQ-29.548 from human platelet thromboxane A2 receptors; conditions: for inhibition at 1 µM: read-out: Affinity: percent of [3H]SQ-29.548 specifically substituted by the examined compound, compound 10^-6 M; for inhibition at 0.1 µM: read-out: Affinity: percent of [3H]SQ-29.548 specifically substituted by the examined compound, compound 10^-7 M
T1 construct: endogenous in cells; host or cells: human platelets
T1 sequence (P21731 1-343): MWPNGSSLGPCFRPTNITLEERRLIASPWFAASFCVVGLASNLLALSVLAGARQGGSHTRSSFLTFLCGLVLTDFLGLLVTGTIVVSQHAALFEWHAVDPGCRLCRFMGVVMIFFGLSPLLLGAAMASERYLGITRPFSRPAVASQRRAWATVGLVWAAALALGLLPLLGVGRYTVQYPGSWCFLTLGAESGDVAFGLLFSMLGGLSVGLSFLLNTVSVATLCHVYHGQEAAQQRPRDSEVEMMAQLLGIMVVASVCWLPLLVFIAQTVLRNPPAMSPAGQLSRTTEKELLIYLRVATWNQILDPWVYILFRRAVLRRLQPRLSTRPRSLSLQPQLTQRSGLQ
From the text: To operate a first selection, the capacity of these compounds to displace in a specific way a tritium ligand, the [^3H]
Cozzi P., Giordani A., Menichincheri M., Pillan A., Pinciroli V., Rossi A., Tonani R., Volpi D., Tamburin M., Ferrario R., Fusar D., Salvati P.,—Agents combining thromboxane receptor antagonism with thromboxane synthase inhibition:[[[2-(1H-imidazol-1-yl)ethylidene]amino]oxy]alkanoic acids.—J. Med. Chem., 1994, 37, 3588-3604.

[2] = system: Human Platelets aggregation; assay: Human platelet aggregation test induced by arachidonic acid or U-46619; assay type: cell-based
From the text: The TXA2 antagonist potency of the selected compounds has been evaluated by a platelet aggregation test induced by the U-46619 (stable agonist of the thromboxan A2) or by the arachidonic acid.
Test described according to:
Born G.V.R., Cross M. J.,—The aggregation of blood platelets.—J. Physiol., 1963, 168, 178-195.
Tsuyoshi T., Masayuki Y., Shuichi W., Kazuhiro K., Takashi Y.,—Designe, synthesis, and pharmacology of 3-substituted sodium azulene—1 sulfonates and related compounds: Non-prostaboid thromboxane A2 receptor antagonists.—J. Med. Chem., 1993, 36, 791-800.

[3] = molecular target: T2, TPτ thromboxan A2 receptors (Rattus norvegicus, UniProt P34978); assay: Rat aorta contraction test (relaxation of aorta precontracted by U-46619); conditions: tonus induced by U-46619 (0.03 μM); read-out: IC 50: concentration reducing by 50% the Rat Aorta muscular tonus
T2 construct: Two tests on smooth musculature have allowed to confirm the antagonist potency on the TPτ thromboxan A2 receptors; from tissue; host or cells: isolated rat aorta; isolated rat stomach fundus
T2 sequence (P34978 1-341): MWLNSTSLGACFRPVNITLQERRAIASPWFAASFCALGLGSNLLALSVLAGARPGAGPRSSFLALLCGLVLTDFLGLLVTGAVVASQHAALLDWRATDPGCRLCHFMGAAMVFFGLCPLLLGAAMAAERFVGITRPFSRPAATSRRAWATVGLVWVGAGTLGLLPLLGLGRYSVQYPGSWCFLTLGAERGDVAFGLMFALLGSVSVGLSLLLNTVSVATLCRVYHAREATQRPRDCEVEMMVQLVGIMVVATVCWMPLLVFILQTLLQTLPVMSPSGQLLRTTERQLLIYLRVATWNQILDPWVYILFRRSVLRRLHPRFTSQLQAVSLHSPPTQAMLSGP
From the text: (§1) Two tests on smooth musculature have allowed to confirm the antagonist potency on the TPτ thromboxan A2 receptors. Indeed, the capacity of the selected compounds during the binding to prevent the contraction of the rat fundus induced by I′U-46619 and to relax the rat aorta precontracted by this same stable agonist of the TXA2 have been evaluated;
Test desribed according to:
de Tullio P., Pirotte B., Lebrun P., Fontaine J., Dupont L., Antoine M. H., Ouedraogo R., Khelili S., Maggetto C., Masereel B., Diouf O., Podona T., Delarge J., 3-and -4-substituted 4H-pyrido[4,3-e]-1,2,4-thiadiazine 1,1-dioxides as potassium channels openers: synthesis pharmacological evaluation, and structure-activity relationships.—J. Med. Chem., 1996, 39, 937-948.

[4] = molecular target: T2, TPτ thromboxan A2 receptors; assay: Test for preventing the rat fundus contraction induced by U-46619; conditions: contraction caused by 5 μg of U-46619; read-out: IC 50: concentration reducing of 50% of maximum contraction amplitude of rat fundus
From the text: as §1
Test description according to:
Harris N., Greenberg R., Phillips M. B., Michel I. M., Goldenberg H. J., Haslanger M. F., Steinbacher T.E.,—Effects of SQ-27,427, a thromboxane A2 receptor antagonist, in the human platelet and isolated smooth muscle.—Eur. J. Pharmacol., 1984, 103, 9-18.

[5] = Platelet, aggregation induced by 30 nM of U-46619, read-out: IC 50 platelet aggregation, U-46.619
[6] = Platelet, aggregation induced by arachidonic acid, read-out: IC 50 platelet aggregation, ARACHIDONIC ACID

Structure (SMILES)	Affinity: percent of [3H]SQ-29.548 specifically substituted by the examined compound, 10^-6M ([1]; compound 10^-6 M) [%]	Affinity: percent of [3H]SQ-29.548 specifically substituted by the examined compound, 10^-7M ([1]; compound 10^-7 M) [%]	IC50 ([2]; aggregation induced by 30 nM of U-46619, read-out: IC 50 platelet aggregation, U-46.619) [nM]	IC50 ([2]; aggregation induced by arachidonic acid, read-out: IC 50 platelet aggregation, ARACHIDONIC ACID) [nM]	IC50 [3] [nM]	IC50 [4] [nM]	IC50 [1] [nM]	inhibition at 1 µM [1] [%]	inhibition at 0.1 µM [1] [%]	IC50 [2, 5] [nM]	IC50 [2, 6] [nM]
O=C(O)CCC/C=C\CC1C2CCC(O2)C1CNNC(=O)Nc1ccccc1 (stereo not drawn) [SQ-29.548, acid [15-[1-alpha,2-beta (5Z),3-beta, 4-alpha]-7-[3-[[2-(phenylamino)carbonyl]hydrazin]methyl]-7-oxabicyclo[2.2.1]hept-2-yl]-5-heptenoic, reference compound]	100	72.0	34	35	31.8	180	–	–	–	–	–
O=[N+]([O-])c1ccc(NC2CCCCCC2)c(S(=O)(=O)NC(=S)NC2CCCCC2)c1 [Compound 40, N-[(2-cycloheptylamin-5-nitrobenzene)sulfonyl]N′-cyclohexyl thiourea]	–	–	–	–	17.7	–	26.9	94.4	63	–	–
CC(C)(C)NC(=O)NS(=O)(=O)c1cc([N+](=O)[O-])ccc1NC1CCCCCC1 [Compound 25]	–	–	–	–	19.7	–	10.5	100	95.2	–	–
O=C(NC1CCCCC1)NS(=O)(=O)c1cc([N+](=O)[O-])ccc1NC1CCCCC1 [Compound 17]	–	–	–	–	1.38	–	22.7	100	88	–	–
Cc1cccc(Nc2ccc([N+](=O)[O-])cc2S(=O)(=O)NC(=NC#N)N2CCCCCC2)c1 [Compound 18, N-cyano-N′-[(2-metatoluylamin-5-nitrobenzene)sulfonyl]homopiperidinoamidine]	–	–	–	–	1.21	70	24.2	100	88.9	480	360
CC(C)(C)NC(=O)NS(=O)(=O)c1cc([N+](=O)[O-])ccc1NC1CCCCC1 [Compound 29, N-[(2-cyclohexylamin-5-nitrobenzene)sulfonyl]N′-tert-butyl urea]	–	–	–	–	20.6	–	7.8	97.4	95.4	–	–
O=C(O)COc1ccc(CCNS(=O)(=O)c2ccccc2)cc1 [SULOTROBAN, sulotroban, reference compound]	–	–	–	–	1600	830	–	55.6	16.5	10500	11700
